Measured values as given in paper PMC5760624, “Microbiota derived short chain fatty acids promote histone crotonylation in the colon through histone deacetylases” (Nature Communications, 2018).

Key:
HDAC1 [1] = molecular target: T1, HDAC1 (Homo sapiens, UniProt Q13547); assay: in vitro histone decrotonylation/deacetylation assay with recombinant HDAC1, western blot readout; format: biochemical
HDAC1 [2] = molecular target: T1, HDAC1; assay: in vitro histone decrotonylation/deacetylation assay with recombinant HDAC1; also used by HDAC1 to crotonylate histones at […] or higher; format: biochemical

T1 sequence (Q13547 whole entry): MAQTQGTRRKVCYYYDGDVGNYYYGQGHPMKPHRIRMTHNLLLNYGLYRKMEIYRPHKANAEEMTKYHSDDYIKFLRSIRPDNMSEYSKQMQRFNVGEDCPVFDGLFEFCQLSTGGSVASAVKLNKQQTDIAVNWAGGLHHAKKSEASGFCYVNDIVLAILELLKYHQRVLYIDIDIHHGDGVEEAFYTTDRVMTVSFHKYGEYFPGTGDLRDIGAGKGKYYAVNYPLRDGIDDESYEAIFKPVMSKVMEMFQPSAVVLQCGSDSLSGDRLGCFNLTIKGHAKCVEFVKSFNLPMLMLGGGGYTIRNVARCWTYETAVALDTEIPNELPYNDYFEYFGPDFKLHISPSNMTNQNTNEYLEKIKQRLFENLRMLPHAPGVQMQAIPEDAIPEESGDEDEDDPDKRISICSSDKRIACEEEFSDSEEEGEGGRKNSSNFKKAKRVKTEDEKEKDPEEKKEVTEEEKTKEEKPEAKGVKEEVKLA

Structure (SMILES)	in vitro histone decrotonylation/deacetylation assay with recombinant HDAC1, wes (HDAC1 [1])	in vitro histone decrotonylation/deacetylation assay with recombinant HDAC1; als (HDAC1 [2])
CCCC(=O)O [butyrate]	In vitro, HDAC inhibitors TSA and butyrate reduced decrotonylation by HDAC1 significantly	
CC=CC(=O)O [crotonate]		We also found that crotonate inhibited decrotonylation and deacetylation in vitro (Fig. 7c).
